From patent publication US10618918B2, “Substituted boronic acids as antimicrobials” (priority 2015, dated 2020)
Like-named read-outs stand apart in the source and are kept apart here.

Assays:
ECL1002 = assay: Aztreonam potentiation (MPC@4), strain ECL1002; details: minimum BLI concentration inhibiting growth with aztreonam 4 μg/mL; tested up to 40 μg/mL
KP1010 SHV-12 = assay: Aztreonam potentiation (MPC@4), strain KP1010 SHV-12; details: minimum BLI concentration inhibiting growth with aztreonam 4 μg/mL; tested up to 40 μg/mL
AB1054 OXA-23 = assay: Meropenem potentiation (MPC@8), strain AB1054 OXA-23; format: cell-based, Acinetobacter baumannii; details: minimum BLI concentration inhibiting growth with meropenem 8 μg/mL; tested up to 20 μg/mL
KP1009 CTX-M-15 = assay: Aztreonam potentiation (MPC@4), strain KP1009 CTX-M-15; details: minimum BLI concentration inhibiting growth with aztreonam 4 μg/mL; tested up to 40 μg/mL
AB1053 OXA-72 = assay: Meropenem potentiation (MPC@8), strain AB1053 OXA-72; format: cell-based, Acinetobacter baumannii; details: minimum BLI concentration inhibiting growth with meropenem 8 μg/mL; tested up to 20 μg/mL
KP1004 KPC-2 [1] = assay: Biapenem potentiation (MPC@1), strain KP1004 KPC-2; format: cell-based; details: minimum BLI concentration inhibiting growth with biapenem 1 μg/mL; tested up to 40 μg/mL
Description: (§1) Biapenem was present in the test medium at 1 μg/mL. […] Table 3 summarizes the BLI potency of biapenem potentiation (MPC@1) for two strains overexpressing class A (KPC) and class D (OXA-48) carbapenemases. Biapenem MIC for each strain is also shown.

[2] = biological target: purified class A, C and D enzymes (β-lactamases) (Klebsiella pneumoniae, UniProt Q6XEC0); assay: biochemical; format: biochemical; details: purified OXA-48; nitrocefin (NCF) as reporter substrate
[3] = biological target: T1, purified class A, C and D enzymes (β-lactamases) (Pseudomonas aeruginosa, UniProt P24735); assay: biochemical; format: biochemical
T1 construct: rows headed: Ki (Pa-AmpC, NCF), uM; other: purified Pa-AmpC; nitrocefin (NCF) as reporter substrate
T1 sequence (P24735 whole entry): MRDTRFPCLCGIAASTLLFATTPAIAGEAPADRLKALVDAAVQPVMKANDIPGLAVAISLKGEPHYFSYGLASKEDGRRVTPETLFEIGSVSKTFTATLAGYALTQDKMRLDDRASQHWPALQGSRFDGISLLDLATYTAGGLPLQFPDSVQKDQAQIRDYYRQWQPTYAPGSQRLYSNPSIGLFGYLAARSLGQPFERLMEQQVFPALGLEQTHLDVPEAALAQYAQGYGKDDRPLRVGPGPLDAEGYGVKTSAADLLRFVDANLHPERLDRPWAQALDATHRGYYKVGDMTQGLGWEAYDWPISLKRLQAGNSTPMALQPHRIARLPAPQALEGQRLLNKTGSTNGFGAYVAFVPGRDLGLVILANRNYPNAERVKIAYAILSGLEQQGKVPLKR

[4] = biological target: T2, purified class A, C and D enzymes (β-lactamases) (Acinetobacter baumannii, UniProt Q9L4P2); assay: biochemical; format: biochemical; details: purified OXA-23; nitrocefin (NCF) as reporter substrate
T2 construct: rows headed: Ki (OXA-23, NCF), uM; other: purified OXA-23; nitrocefin (NCF) as reporter substrate
T2 sequence (Q9L4P2 whole entry): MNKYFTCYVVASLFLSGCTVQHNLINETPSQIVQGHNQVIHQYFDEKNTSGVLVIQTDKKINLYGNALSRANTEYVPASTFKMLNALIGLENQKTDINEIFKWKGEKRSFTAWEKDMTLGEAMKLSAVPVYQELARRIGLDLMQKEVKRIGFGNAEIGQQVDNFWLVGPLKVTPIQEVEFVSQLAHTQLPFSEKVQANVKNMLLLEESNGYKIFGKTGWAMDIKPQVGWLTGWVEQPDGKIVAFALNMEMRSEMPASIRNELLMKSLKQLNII

[5] = biological target: purified class A, C and D enzymes (β-lactamases) (Klebsiella pneumoniae, UniProt Q9F663); assay: biochemical; format: biochemical; details: purified KPC-2; nitrocefin (NCF) as reporter substrate
[6] = biological target: purified class A, C and D enzymes (β-lactamases) (Enterobacter cloacae, UniProt P05364); assay: biochemical; format: biochemical
Sequence of purified class A, C and D enzymes (β-lactamases) (Enterobacter cloacae, UniProt P05364) (P05364 21-381): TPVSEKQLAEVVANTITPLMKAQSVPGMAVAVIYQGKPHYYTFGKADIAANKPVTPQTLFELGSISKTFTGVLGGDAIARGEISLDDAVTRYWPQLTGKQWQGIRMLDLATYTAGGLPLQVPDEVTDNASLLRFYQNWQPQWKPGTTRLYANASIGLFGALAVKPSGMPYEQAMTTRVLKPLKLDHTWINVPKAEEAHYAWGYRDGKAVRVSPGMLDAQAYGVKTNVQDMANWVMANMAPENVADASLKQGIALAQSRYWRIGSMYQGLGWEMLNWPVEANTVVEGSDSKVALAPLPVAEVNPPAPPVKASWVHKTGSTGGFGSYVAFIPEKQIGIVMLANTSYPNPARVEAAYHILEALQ

ec302 TEM-10 = assay: Aztreonam potentiation (MPC@4), strain ec302 TEM-10; details: minimum BLI concentration inhibiting growth with aztreonam 4 μg/mL; tested up to 40 μg/mL
EC1010 CMY-6 = assay: Aztreonam potentiation (MPC@4), strain EC1010 CMY-6; details: minimum BLI concentration inhibiting growth with aztreonam 4 μg/mL; tested up to 40 μg/mL
KP1086 OXA-48 = assay: Biapenem potentiation (MPC@1), strain KP1086 OXA-48; format: cell-based; details: minimum BLI concentration inhibiting growth with biapenem 1 μg/mL; tested up to 40 μg/mL
Description: as §1

KP1004 KPC-2 [7] = assay: Aztreonam potentiation (MPC@4), strain KP1004 KPC-2; details: minimum BLI concentration inhibiting growth with aztreonam 4 μg/mL; tested up to 40 μg/mL
KP1005 CTX-M-14 = assay: Tigemonam potentiation (MPC@4), strain KP1005 CTX-M-14; details: minimum BLI concentration inhibiting growth with tigemonam 4 μg/mL; tested up to 40 μg/mL
ec308 SHV-5 = assay: Aztreonam potentiation (MPC@4), strain ec308 SHV-5; details: minimum BLI concentration inhibiting growth with aztreonam 4 μg/mL; tested up to 40 μg/mL

| Compound | AZT MPC4 ECL1002 (ECL1002) | AZT MPC4 SHV-12 KP1010 (KP1010 SHV-12) | MPM MPC8 AB1054 OXA-23 (AB1054 OXA-23) | AZT MPC4 CTX-M-15 KP1009 (KP1009 CTX-M-15) | MPM MPC8 AB1053 OXA-72 (AB1053 OXA-72) | BPM MPC1 KP1004 KPC-2 (KP1004 KPC-2 [1]) | Ki (OXA-48, NCF), uM [2] | Ki [3] | Ki [4] | Ki (KPC-2, NCF), uM [5] | Ki (P99, NCF), uM [6] | AZT MPC4 TEM-10 ec302 (ec302 TEM-10) | AZT MPC4 CMY-6 EC1010 (EC1010 CMY-6) | BPM MPC1 OXA-48 KP1086 (KP1086 OXA-48) | AZT MPC4 KPC-2 KP1004 (KP1004 KPC-2 [7]) | TIG MPC4 CTX-M-14 KP1005 (KP1005 CTX-M-14) | AZT MPC4 SHV-5 ec308 (ec308 SHV-5) | Ki ([3]; purified Pa-AmpC, nitrocefin (NCF) as reporter substrate, read-out: Ki (Pa-AmpC, NCF)) | Ki (P99, NCF), uM ([6]; purified P99, nitrocefin (NCF) as reporter substrate) |
| --- | --- | --- | --- | --- | --- | --- | --- | --- | --- | --- | --- | --- | --- | --- | --- | --- | --- | --- | --- |
| NCC#CCOc1ccc2c(c1C(=O)[O-])O[B-](O)(O)CC2.[Na+].[Na+] [Compound 32, Disodium; 8-(4-aminobut-2-ynoxy)-4,4-dihydroxy-5-oxa-4-boranuidabicyclo[4.4.0]deca-1(6),7,9-triene-7-carboxylate] | X (X = MPC@4 ≤ 5 μg/mL) | X (X = MPC@4 ≤ 5 μg/mL) | X (X = MPC@1 ≤ 5 μg/mL) | X (X = MPC@4 ≤ 5 μg/mL) | X (X = MPC@1 ≤ 5 μg/mL) | X (X = MPC@1 ≤ 5 μg/mL) | X (X = Ki ≤ 0.1 μM) | < 100 nM | < 100 nM | X (X = Ki ≤ 0.1 μM) | X (key: X = Ki ≤ 0.1 μM; Y = 0.1 μM < Ki ≤ 1 μM; Z = Ki > 1 μM) | X (X = MPC@4 ≤ 5 μg/mL) | X (X = MPC@4 ≤ 5 μg/mL) | X (X = MPC@1 ≤ 5 μg/mL) | X (X = MPC@4 ≤ 5 μg/mL) | Y (Y = 5 μg/mL < MPC@4 ≤ 20 μg/mL) | Y (Y = 5 μg/mL < MPC@4 ≤ 20 μg/mL) |  |  |
| CSc1ccc2c(c1C(=O)[O-])O[B-](O)(O)CC2.[Na+].[Na+] [Compound 36, Disodium; 4,4-dihydroxy-8-methylsulfanyl-5-oxa-4-boranuidabicyclo[4.4.0]deca-1(6),7,9-triene-7-carboxylate] | X (X = MPC@4 ≤ 5 μg/mL) | X (X = MPC@4 ≤ 5 μg/mL) | X (X = MPC@1 ≤ 5 μg/mL) | Y (Y = 5 μg/mL < MPC@4 ≤ 20 μg/mL) | Y (Y = 5 μg/mL < MPC@1 ≤ 20 μg/mL) | X (X = MPC@1 ≤ 5 μg/mL) | X (X = Ki ≤ 0.1 μM) | < 100 nM | < 100 nM | X (X = Ki ≤ 0.1 μM) | X (key: X = Ki ≤ 0.1 μM; Y = 0.1 μM < Ki ≤ 1 μM; Z = Ki > 1 μM) | X (X = MPC@4 ≤ 5 μg/mL) | X (X = MPC@4 ≤ 5 μg/mL) | X (X = MPC@1 ≤ 5 μg/mL) | X (X = MPC@4 ≤ 5 μg/mL) | Y (Y = 5 μg/mL < MPC@4 ≤ 20 μg/mL) | X (X = MPC@4 ≤ 5 μg/mL) |  |  |
| O=C([O-])c1cc(F)cc2c1O[B-](O)(O)CC2.[Na+].[Na+] [Compound 37, Disodium; 9-fluoro-4,4-dihydroxy-5-oxa-4-boranuidabicyclo[4.4.0]deca-1(6),7,9-triene-7-carboxylate] | Y (Y = 5 μg/mL < MPC@4 ≤ 20 μg/mL) | X (X = MPC@4 ≤ 5 μg/mL) | Z (Z = MPC@1 > 20 μg/mL) | Y (Y = 5 μg/mL < MPC@4 ≤ 20 μg/mL) | Z (Z = MPC@1 > 20 μg/mL) | X (X = MPC@1 ≤ 5 μg/mL) | X (X = Ki ≤ 0.1 μM) | < 100 nM | < 100 nM | X (X = Ki ≤ 0.1 μM) | X (key: X = Ki ≤ 0.1 μM; Y = 0.1 μM < Ki ≤ 1 μM; Z = Ki > 1 μM) | Y (Y = 5 μg/mL < MPC@4 ≤ 20 μg/mL) | X (X = MPC@4 ≤ 5 μg/mL) | X (X = MPC@1 ≤ 5 μg/mL) | X (X = MPC@4 ≤ 5 μg/mL) | Z (Z = MPC@4 > 20 μg/mL) | Y (Y = 5 μg/mL < MPC@4 ≤ 20 μg/mL) |  |  |
| O=C([O-])c1ccnc2c1O[B-](O)(O)CC2.[Na+].[Na+] [Compound 38, Disodium; 8,8-dihydroxy-7-oxa-2-aza-8-boranuidabicyclo[4.4.0]deca-1,3,5-triene-5-carboxylate] | Z (Z = MPC@4 > 20 μg/mL) | Z (Z = MPC@4 > 20 μg/mL) | Z (Z = MPC@1 > 20 μg/mL) | Z (Z = MPC@4 > 20 μg/mL) | Z (Z = MPC@1 > 20 μg/mL) | X (X = MPC@1 ≤ 5 μg/mL) | X (X = Ki ≤ 0.1 μM) | > 1000 nM | > 1000 nM | Y (Y = 0.1 μM < Ki ≤ 1 μM) | Z (key: X = Ki ≤ 0.1 μM; Y = 0.1 μM < Ki ≤ 1 μM; Z = Ki > 1 μM) | Z (Z = MPC@4 > 20 μg/mL) | Y (Y = 5 μg/mL < MPC@4 ≤ 20 μg/mL) | Y (Y = 5 μg/mL < MPC@1 ≤ 20 μg/mL) | Y (Y = 5 μg/mL < MPC@4 ≤ 20 μg/mL) | Z (Z = MPC@4 > 20 μg/mL) | Z (Z = MPC@4 > 20 μg/mL) |  |  |
| O=C(O)c1c(OC(CO)CO)ccc2c1OB(O)CC2 [Compound 44, 2-hydroxy-7-[2-hydroxy-1-(hydroxymethyl)ethoxy]-3,4-dihydro-1,2-benzoxaborinine-8-carboxylic acid] | Y (Y = 5 μg/mL < MPC@4 ≤ 20 μg/mL) | X (X = MPC@4 ≤ 5 μg/mL) | Y (Y = 5 μg/mL < MPC@1 ≤ 20 μg/mL) | Y (Y = 5 μg/mL < MPC@4 ≤ 20 μg/mL) | X (X = MPC@1 ≤ 5 μg/mL) | X (X = MPC@1 ≤ 5 μg/mL) | X (X = Ki ≤ 0.1 μM) |  | < 100 nM | X (X = Ki ≤ 0.1 μM) |  | Y (Y = 5 μg/mL < MPC@4 ≤ 20 μg/mL) | X (X = MPC@4 ≤ 5 μg/mL) | X (X = MPC@1 ≤ 5 μg/mL) | X (X = MPC@4 ≤ 5 μg/mL) | Z (Z = MPC@4 > 20 μg/mL) | Y (Y = 5 μg/mL < MPC@4 ≤ 20 μg/mL) | < 100 nM | X (X = Ki ≤ 0.1 μM) |
